Entries after “also recorded” stand apart in the source; their conditions may differ. Like-named read-outs stand apart in the source and are kept apart here.
Legend:
[1] = In vivo biodistribution study in rats; design: species or system rat; settings: for uptake in testes over time: i.v., 15, 60 and 120 min post-injection
rat A3AR [2] = molecular target: T1, rat A3AR (Rattus norvegicus, UniProt P28647)
T1 sequence (P28647 1-320): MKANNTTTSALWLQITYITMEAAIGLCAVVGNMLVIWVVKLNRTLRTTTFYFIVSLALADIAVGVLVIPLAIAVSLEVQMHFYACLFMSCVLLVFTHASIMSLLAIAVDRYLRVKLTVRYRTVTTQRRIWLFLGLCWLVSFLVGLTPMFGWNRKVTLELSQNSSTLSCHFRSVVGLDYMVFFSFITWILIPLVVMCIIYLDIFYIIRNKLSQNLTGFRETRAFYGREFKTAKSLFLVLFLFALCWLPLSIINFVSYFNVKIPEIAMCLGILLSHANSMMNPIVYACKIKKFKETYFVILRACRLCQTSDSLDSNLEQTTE

rat A3AR [3] = molecular target: T1, rat A3AR; test: Competitive radioligand binding at rat A3AR in CHO cell membranes using [76Br]4; settings: for potency in binding to the rat A3AR: Figures 1A and 1B, [76Br]4 or [76Br]6 as radioligand; for Ki: read-out: Rat Ki, CHO cell membranes, radioligand [76Br]4 0.5 nM, 25°C 60 min
human A3AR [4] = molecular target: T2, human A3AR (Homo sapiens, UniProt P0DMS8); settings: for potency at human versus rat A3AR: Figures 1A and 1B; for Ki: read-out: Human Ki, CHO cell membranes, radioligand [76Br]4 0.5 nM, 25°C 60 min
T2 sequence (P0DMS8 1-318): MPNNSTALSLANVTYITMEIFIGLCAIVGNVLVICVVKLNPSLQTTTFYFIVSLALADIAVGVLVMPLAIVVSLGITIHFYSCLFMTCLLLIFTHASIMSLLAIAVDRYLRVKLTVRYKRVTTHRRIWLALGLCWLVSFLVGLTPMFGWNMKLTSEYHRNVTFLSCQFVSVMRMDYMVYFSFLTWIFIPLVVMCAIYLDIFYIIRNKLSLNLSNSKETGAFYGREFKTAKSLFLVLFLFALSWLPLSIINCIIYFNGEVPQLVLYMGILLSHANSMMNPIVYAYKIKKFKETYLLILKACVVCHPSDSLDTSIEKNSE

human A3AR [5] = molecular target: T2, human A3AR; settings: read-out: Human Ki; CHO cell membranes, radioligand [76Br]MRS5147 6
[6] = In vitro metabolism in human hepatocytes; type: in vitro ADME; settings: 20 μg/mL, 37°C, up to 4 hours; only very small amounts of metabolites by LC/MS
[7] = In vitro metabolism in rat hepatocytes; type: in vitro ADME; settings: 20 μg/mL, 37°C, up to 4 hours; only very small amounts of metabolites by LC/MS
A3AR = test: In vitro tissue binding; settings: rat whole brain and testes slices, with and without inhibitors, preliminary
human A3AR [8] = molecular target: T2, human A3AR; settings: cited from earlier work
[9] = read-out: Rat Ki, CHO cell membranes, radioligand [76Br]MRS5147 6

Structure (SMILES) | uptake in testes over time ([1]; rat) | Ki (rat A3AR [2]; [9]) | potency in binding to the rat A3AR (rat A3AR [3]) | Ki (rat A3AR [3]) | potency at human versus rat A3AR (human A3AR [4]) | Ki (human A3AR [4]) | also measured
O[C@@H]1[C@H](O)[C@@H]2C[C@@H]2[C@H]1n1cnc2c(NCc3cccc([76Br])c3)nc(Cl)nc21 [[^76Br]6, [^76Br](1R,2R,3S,4R,5S)-4-(6-(3-bromobenzylamino)-2-chloro-9H-purin-9-yl)bicyclo[3.1.0]hexane-2,3-diol] | continued to increase with time; also recorded: statistically increased relative to the 15 min time point |  |  |  |  |  | tissue uptake relative to agonist [76Br]4 ([1]; rat, i.v., %ID/g): an order of magnitude lower
O[C@@H]1[C@H](O)[C@@H]2C[C@@H]2[C@H]1n1cnc2c(NCc3cccc(Br)c3)nc(Cl)nc21 [compound 6, (1R,2R,3S,4R,5S)-4-(6-(3-bromobenzylamino)-2-chloro-9H-purin-9-yl)bicyclo[3.1.0]hexane-2,3-diol] | increasing uptake in testes |  |  |  |  |  | Ki (rat A3AR [2]): 5.2 ± 1.8 nM
O=C(Cc1ccccc1)Nc1nc2ccc(Cl)cc2c2nc(-c3ccco3)nn12 [MRS1220, N-[9-chloro-2-(2-furanyl)[1,2, 4]triazolo[1,5-c]quinazolin-5-yl]benzeneacetamide] |  | > 10000 nM | ineffective | > 10000 nM |  |  | 
CCCOC(=O)c1c(-c2ccccc2)nc(CC)c(C(=O)SCC)c1CCC [MRS1523, 3-propyl-6-ethyl-5-[(ethylthio)carbonyl]-2-phenyl-4-propyl-3-pyridine carboxylate, reference compound] |  | 2830 ± 520 nM | moderately potent | 939 ± 98 nM | more potent at the human A3AR | 125 ± 13 nM | Ki (human A3AR [5]): 120 ± 17 nM
CNC(=O)[C@]12C[C@@H]1[C@@H](n1cnc3c(NCc4cccc([76Br])c4)nc(Cl)nc31)[C@H](O)[C@@H]2O [[^76Br]4, [^76Br](1′R,2′R,3′S,4′R,5′S)-4-{2-chloro-6-[(3-bromophenylmethyl)amino]purin-9-yl}-1-(methylaminocarbonyl)bicyclo[3.1.0]hexane-2,3-diol] |  |  |  |  |  |  | metabolic stability in human hepatocytes [6]: very stable; metabolic stability in rat hepatocytes [7]: very stable; specific uptake of radioligand in tissue slices (A3AR): fail to show any specific uptake; organs of primary uptake ([1]; i.v., Sprague-Dawley rats, 15-120 min): liver and kidneys
CNC(=O)[C@]12C[C@@H]1[C@@H](n1cnc3c(NCc4cccc(Br)c4)nc(Cl)nc31)[C@H](O)[C@@H]2O [compound 4, (1′R,2′R,3′S,4′R,5′S)-4-{2-chloro-6-[(3-bromophenylmethyl)amino]purin-9-yl}-1-(methylaminocarbonyl)bicyclo[3.1.0]hexane-2,3-diol] |  |  |  | 0.9 ± 0.07 nM | equally potent | 0.63 ± 0.05 nM | selectivity in comparison to other AR subtypes (human A3AR [8]): high selectivity; Ki (human A3AR [8]; read-out: Ki value at the human A3AR, shown previously, listed as 4 (MRS3581)): 0.38 nM
